Series [1] is described as follows: logP determination by reversed-phase HPLC (EEC Directive 79/831 Annex V.A8). It counts as physicochemical. An excerpt: (a) Mobile phases for the determination of the acidic range: 0.1% aqueous phosphoric acid, acetonitrile; linear gradient from 10% acetonitrile to 90% acteonitrile—the corresponding measurement results in Table 1 are marked^a). […]
The subject of series [2] is Heliothis armigera caterpillars. The series is described as follows: Heliothis armigera test (soya bean shoots, dip). The format is in vivo. As to conditions: 500 ppm, soya bean shoots dipped. The protocol:
(§1) • Solvent: 7 parts by weight of dimethylformamide • Emulsifier: 2 parts by weight of alkylaryl polyglycol ether
(§2) To produce a suitable preparation of active compound, 1 part by weight of active compound is mixed with the stated amounts of solvent and emulsifier, and the concentrate is diluted with emulsifier-containing water to the desired concentration.
Soya bean shoots (Glycine max) are treated by being dipped into the preparation of active compound of the desired concentration and are populated with Heliothis annigera caterpillars while the leaves are still moist.
(§3) After the desired period of time, the kill in % is determined. 100% means that all caterpillars have been killed; 0% means that none of the caterpillars have been killed.

For series [3], the system named is peach aphid (Myzus persicae). The series is described as follows: Myzus test (cabbage leaves, dip). As to conditions: 500 ppm, cabbage leaves dipped. It counts as in vivo. As for the experimental part:
as §1, §2
Cabbage leaves (Brassica oleracea) which are heavily infested by the peach aphid (Myzus persicae) are treated by being dipped into the preparation of active compound of the desired concentration.
After the desired period of time, the kill in % is determined. 100% means that all aphids have been killed; 0% means that none of the aphids have been killed.

In series [4] the test system is larvae of the mustard beetle (Phaedon cochleariae). The series is described as follows: Phaedon larvae test (cabbage leaves, dip). It counts as in vivo. The note with it: 168 h, after 7 d, cabbage leaves dipped, read-out: Kill rate in % after 7 d. As for the experimental part: as §1
After the desired period of time, the kill in % is determined. 100% means that all beetle larvae have been killed; 0% means that none of the beetle larvae have been killed.

Series [5] relates to caterpillars of the diamondback moth (Plutella xylostella). The series can be described thus: Plutella test (cabbage leaves, dip). The format is in vivo. As to conditions: 500 ppm, cabbage leaves dipped. As for the experimental part:
as §1, §2
Cabbage leaves (Brassica oleracea) are treated by being dipped into the preparation of active compound of the desired concentration and are populated with caterpillars of the diamondback moth (Plutella xylostella) while the leaves are still moist.
as §3

Series [6] concerns greenhouse red spider mite (Tetranychus urticae). The series is described as follows: Tetranychus test (OP-resistant/dip treatment). It counts as in vivo. The note with it: 168 h, 100 ppm, after 7 d, OP-resistant, bean plants dipped, read-out: Kill rate in % after 7 d. The protocol: Tetranychus Test (OP-Resistant/Dip Treatment)
as §1
After the desired period of time, the effect in % is determined. 100% means that all spider mites have been killed; 0% means that none of the spider mites have been killed.

In series [7] the test system is cotton aphid (Aphis gossypii). The series can be described thus: Aphis gossypii test (cotton leaves, dip). It counts as in vivo. As to conditions: 500 ppm, cotton leaves dipped. The protocol: as §1, §2
Cotton leaves (Gossypium hirsutum) which are heavily infested by the cotton aphid (Aphis gossypii) are treated by being dipped into the preparation of active compound of the desired concentration.
After the desired period of time, the kill in % is determined. 100% means all aphids have been killed; 0% means that none of the aphids have been killed.

For series [8], the system named is caterpillars of the armyworm (Spodoptera frugiperda). The series can be described thus: Spodoptera frugiperda test (cabbage leaves, dip). It counts as in vivo. As to conditions: 168 h, after 7 d, cabbage leaves dipped, read-out: Kill rate in % after 7 d. The protocol: Spodoptera frugiperda Test
as §1, §3

Setting [9] is: reversed-phase HPLC column (C18), pH 2.3, read-out: logP (pH 2.3).
[10] abbreviates: reversed-phase HPLC column (C18); acidic range: 0.1% aqueous phosphoric acid/acetonitrile gradient, C18, 43° C.; read-out: logP a).

Where two headings read alike, the source gives them in different places.

As to `FC(F)=CCCSc1nccc(-n2cccn2)n1` [Example 1, 2-[(4,4-difluoro-3-butenyl)-sulfanyl]-4-(pyrazol-1-yl)-pyrimidine], the chromatographic logP in series [1] (setting [9]) worked out at 3.3. Also, the “Kill rate in % after 7 d” value in series [2] and in series [5] was 100% in each case. Further, the “Kill rate in % after 6 d” value in series [3] stood at 99%. Moreover, the pest or weed control at 500 ppm in series [4] turned out to be 100%. Besides, the pest or weed control at 100 ppm in series [6] is 100%.

In the case of `FC(F)=CCCSc1nccc(-c2ccccn2)n1` [Example 2], the chromatographic logP in series [1] (setting [9]) came to 3.33. For the same compound, the figures for the “Kill rate in % after 6 d” value in series [7] and in series [3] were 99% and 100%, respectively. Also, the pest or weed control at 500 ppm in series [4] was determined as 100%.

As for `FC(F)=CCCSc1nccc(-c2nccc3ccccc23)n1` [Example 7], the chromatographic logP in series [1] (setting [10]) was 3.67. For the same compound, the “Kill rate in % after 6 d” value worked out at 98% in series [7] and 100% in series [3]. The “Kill rate in % after 7 d” value in series [5] turned out to be 100%. Besides, in series [6], the pest or weed control at 100 ppm came out at 100%.

In the case of `COc1ccnc(-c2ccnc(SCCC=C(F)F)n2)c1` [Example 8], the chromatographic logP in series [1] (setting [10]) was found to be 2.41. In addition, the “Kill rate in % after 6 d” value in series [7] worked out at 99%; in series [3], 95%.

For the compound `FC(F)=CCCSc1nccc(-c2nccs2)n1` [Example 11], the chromatographic logP in series [1] (setting [10]) was 3.33. In series [3], the “Kill rate in % after 6 d” value turned out to be 95%. In addition, in series [4], the pest or weed control at 500 ppm was 95%.

On to `FC(F)=CCCSc1nccc(-c2cnccn2)n1` [Example 14], for which the chromatographic logP in series [1] (setting [10]) was determined as 2.91. The “Kill rate in % after 6 d” value in series [3] is given as 95%. The pest or weed control at 100 ppm in series [6] was determined as 100%.

As for `FC(F)=CCCSc1nccc(-n2ccnn2)n1` [Example 25], in series [1] (setting [10]), the chromatographic logP turned out to be 2.62. Also, the “Kill rate in % after 7 d” value in series [2] and in series [5] was 100% each time. For the same compound, in series [6], the pest or weed control at 100 ppm came to 100%.

Turning to `FC(F)=CCCSc1nccc(-n2nccn2)n1` [Example 26], the chromatographic logP in series [1] (setting [10]) turned out to be 2.7. The “Kill rate in % after 6 d” value in series [7] was determined as 95%; in series [3], 99%. For the same compound, the pest or weed control at 500 ppm in series [8] is 100%.

As for `COc1cccnc1-c1ccnc(SCCC=C(F)F)n1` [Example 37], in series [1] (setting [10]), the chromatographic logP was 2.14. Besides, the “Kill rate in % after 7 d” value in series [2] and in series [5] was 100% throughout. For the same compound, in series [6], the pest or weed control at 100 ppm worked out at 100%.

For `Cc1c(-c2ccnc(SCCC=C(F)F)n2)sc2ccccc12` [Example 54], in series [1] (setting [10]), the chromatographic logP was 5.25. For the same compound, the “Kill rate in % after 7 d” value in series [5] was determined as 100%. Also, the pest or weed control at 500 ppm in series [8] was found to be 100%. In series [6], the pest or weed control at 100 ppm was found to be 100%.

The values above are taken from patent US20060106042A1, “Substituted heterocyclpyrmidines” (priority 2002, published 2006).
